Reference: US6518339B1, “Aldehyde emission reduction for dibenzylidene sorbitol clarified plastics” (Milliken & Company, priority 2000, dated 2003)

Experiments:
[1] = Water solubility of the hydrazide/aldehyde reaction product; assay type: physicochemical; settings: tap water; precipitate from adipic dihydrazide and 4-methylbenzaldehyde
Experimental: The reaction product of hydrazide and aldehyde was then tested for water solubility. The test involved the following: To a 10-ounce sample vial was charged 30 ml of tap water and 0.14 g (0.8 mmol) of adipic dihydrazide. This mixture was shaken until a clear, colorless solution was obtained. 4-Methylbezaldehyde (0.14 g, 1.3 mmol) was added to the solution and the mixture was shaken for one minute, immediately precipitating a white solid. The mixture was then allowed to stand for an additional ten minutes, followed by collection of the solids by suction filtration to obtain […] of the (bis 4-methyl)adiponylbis(hydrazone).

[2] = Retort test, UV/VIS measurement of extracted aldehyde (Japanese Pharmacopoeia protocol); settings: hydrazide in formulation with 3,4-DMDBS, versus 3,4-DMDBS alone
Experimental: Testing was then conducted to determine the extent of aldehyde extraction from the compounded plastics. The testing procedures were as follows: Retort testing was performed per the Japanese Pharmacopoeia protocol (Japanese Pharmacopoeia, 13th ed. 1996: 76-82). Seven 50-mil plaques of each formulation were cut into 9 strips, rinsed with water, and placed into clean 1 quart Mason jars containing 200 ml of deionized water. The jars were covered with aluminum foil and autoclaved for 1 hour. The extraction water was then analyzed for UV absorbance between 220-240 nm and from 241-350 nm, after a suitable blank had been tested. Powderless latex gloves were worn during the entire procedure.

Row | Compound | Water solubility, in words [1] | melting point | Reduction of peak absorbance between 220-240 nm [2] | Reduction of peak absorbance between 241-350 nm [2]
1 | Cc1ccc(C=NNC(=O)CCCCC(=O)NN=Cc2ccc(C)cc2)cc1 [(bis 4-methyl)adiponylbis(hydrazone)] | substantially insoluble in water | – | – | –
2 | NNC(=O)CCCCC(=O)NN [Example 2, Adipic dihydrazide] | – | 182.5 to 185.5 °C | – | –
3 | NNC(=O)CCCC(=O)NN [Example 4, Glutaric dihydrazide] | – | 176.3 to 178.6 °C | – | –
4 | NNC(=O)CCCCCC(=O)NN [Example 5, Pimelic dihydrazide] | – | 183.2 to 185 °C | 70% | 80%
5 | NNC(=O)CCCCCCC(=O)NN [Example 6, Suberic dihydrazide] | – | 186.9 to 189.1 °C | – | –
